Experiment in all cases: two-electrode voltage clamp, Xenopus oocytes
Common to all, as to format: cell-based, Apis mellifera
Holding throughout (conditions): 96 mM KCl Ringer, pH 7.6; holding potential -80 mV; VU041 in DMSO
A general note: Two-electrode voltage clamp holds a large cell at a set potential and records current.

For one assay, the system named is T1, AmKir2.2.
T1 construct: homotetramer; N-terminal tail 31 residues longer than AmKir2.3

The next assay concerns T2, AmKir2.3.
T2 construct: homotetramer; N-terminal tail 31 residues shorter than AmKir2.2

Another assay has as its system T3, AmKir1.1.
T3 construct: homotetramer; longer N-terminal and shorter C-terminal tail than AmKir2

The values below come from article PMC10991380, “Cloning, functional expression, and pharmacological characterization of inwardly rectifying potassium channels (Kir) from Apis mellifera” (Scientific Reports, 2024).

The structures appear in SMILES notation.

For orientation: % inhibition means the percentage by which the read-out fell short of the control. In the case of `O=C(Cn1nc(C(F)(F)F)c2c1CCCC2)N1CCCc2ccccc21` [VU041], the “% inhibition at 10^-4 M” value came to 45.65 ± 5.01% in the assay with AmKir2.2 and 48.94 ± 3.79% in the assay on AmKir1.1. Moreover, the “% inhibition at 10^-5 M” value with AmKir2.3 came out at 24.04 ± 1.92%.
